This note sets out measurements from patent publication US20070027150A1 (priority 2005, published 2007).

SMILES strings stand for the structures.

The term IC50 denotes the concentration at which inhibition is half-maximal.

The first assay has as its target His-tagged N-terminal ATP binding domain (amino acid residues 9-236) of HSP90α (Homo sapiens, UniProt P07900). Description: HSP90 inhibitor binding potency: TRF competition binding assay. The conditions noted are these: Table I; read-out: Hsp90 IC50 Range. The procedure, abridged: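 His-tagged HSP90α N-domain (residues 9-236) incubated 2 h at room temperature with biotinylated radicicol and increasing compound in 50 mM HEPES, 6 mM MgCl2, 20 mM KCl, 0.1% BSA. Bound tracer captured on streptavidin plates, detected with europium anti-His antibody by time-resolved fluorescence; IC50 derived.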
Regarding `Cc1nc(N)nc2c1C(=O)CC(c1ccccc1-c1cccc3c1NC(=O)C3)C2` (centres unmarked) [Compound 131, 2-amino-4-methyl-7-[2-(2-oxo-2,3-dihydro-1H-indol-7-yl)phenyl]-7,8-dihydroquinazolin-5(6H)-one], the IC50 fell in the range of 1 to 10 µM. In the case of `Cc1nc(N)nc2c1C(=O)CC(c1ccccc1Oc1cccc(F)n1)C2` (centres unmarked) [Compound 145, 2-amino-7-{2-[(6-fluoropyridin-2-yl)oxy]phenyl}-4-methyl-7,8-dihydroquinazolin-5(6H)-one], the IC50 was less than 1 µM. With `Cc1nc(N)nc2c1C(=O)CC(c1ccc(Cl)cc1)C2` (centres unmarked) [Compound 3, 2-amino-7-(4-chlorophenyl)-4-methyl-7,8-dihydroquinazolin-5(6H)-one], the IC50 was less than 1 µM.

Consider `Cc1nc(N)nc2c1C(=O)CC(c1ccccc1-c1ccccc1CO)C2` (centres unmarked) [Compound 68, 2-amino-7-[2′-(hydroxymethyl)-1,1′-biphenyl-2-yl]-4-methyl-7,8-dihydroquinazolin-5(6H)-one], for which the IC50 is less than 1 µM. On the same count and under the same terms, with `Cc1nc(N)nc2c1C(=O)CC(c1ccccc1-c1cncc3ccccc13)C2` (centres unmarked) [Compound 100, 2-amino-7-(2-isoquinolin-4-ylphenyl)-4-methyl-7,8-dihydroquinazolin-5(6H)-one] the figure was 1 to 10 µM; with `Cc1nc(N)nc2c1C(=O)CC(c1ccccc1-c1cccc(F)n1)C2` (centres unmarked) [Compound 122, 2-amino-7-[2-(6-fluoropyridin-2-yl)phenyl]-4-methyl-7,8-dihydroquinazolin-5(6H)-one], less than 1 µM; with `Cc1nc(N)nc2c1C(=O)CC(c1ccc(F)cc1Br)C2` (centres unmarked) [Compound 16, 2-amino-7-(2-bromo-4-fluoro-phenyl)-4-methyl-7,8-dihydro-6H-quinazolin-5-one], less than 1 µM.

As for `COc1cccc(-c2cccc(OC)c2C2CC(=O)c3c(C)nc(N)nc3C2)n1` (centres unmarked) [Compound 132, 2-amino-7-[2-methoxy-6-(6-methoxy-pyridin-2-yl)-phenyl]-4-methyl-7,8-dihydro-6H-quinazolin-5-one], the half-maximal inhibitory concentration (IC50) is less than 1 µM. Take `COc1ccc(-c2cccnc2)c(C2CC(=O)c3c(C)nc(N)nc3C2)c1` (centres unmarked) [Compound 71, 2-amino-7-(5-methoxy-2-pyridin-3-ylphenyl)-4-methyl-7,8-dihydroquinazolin-5(6H)-one]: the concentration for half-maximal inhibition (IC50) is less than 1 µM.

Take `Cc1nc(N)nc2c1C(=O)CC(c1ccccc1-c1ccc(F)cn1)C2` (centres unmarked) [Compound 123, 2-amino-7-[2-(5-fluoropyridin-2-yl)phenyl]-4-methyl-7,8-dihydroquinazolin-5(6H)-one]: the half-inhibitory concentration (IC50) was less than 1 µM. For `Cc1nc(N)nc2c1C(=O)CC(c1ccccc1-c1cccc3[nH]ccc13)C2` (centres unmarked) [Compound 128, 2-amino-7-[2-(1H-indol-4-yl)phenyl]-4-methyl-7,8-dihydroquinazolin-5(6H)-one], the IC50 is less than 1 µM. In the case of `Cc1nc(N)nc2c1C(=O)CC(c1cnccc1-c1cccnc1F)C2` (centres unmarked) [Compound 61, 2-amino-7-(2-fluoro-[3,4′]bipyridinyl-3′-yl)-4-methyl-7,8-dihydro-6H-quinazolin-5-one], the IC50 was less than 1 µM. As for `Cc1nc(N)nc2c1C(=O)CC(c1ccccc1-c1ccccc1F)C2` (centres unmarked) [Compound 51, 2-amino-7-(2′-fluoro-1,1′-biphenyl-2-yl)-4-methyl-7,8-dihydroquinazolin-5(6H)-one], the IC50 was less than 1 µM. With `Cc1nc(N)nc2c1C(=O)CC(c1cccnc1Cl)C2` (centres unmarked) [Compound 4, 2-amino-7-(2-chloropyridin-3-yl)-4-methyl-7,8-dihydroquinazolin-5(6H)-one], the IC50 was greater than 10 µM. Take `Cc1cccc(-c2ccccc2C2CC(=O)c3c(C)nc(N)nc3C2)c1F` (centres unmarked) [Compound 126, 2-amino-7-(2′-fluoro-3′-methyl-1,1′-biphenyl-2-yl)-4-methyl-7,8-dihydroquinazolin-5(6H)-one]: the IC50 was less than 1 µM.

In the case of `Cc1nc(N)nc2c1C(=O)CC(c1ccccc1-c1cncnc1)C2` (centres unmarked) [Compound 42, 2-amino-4-methyl-7-(2-pyrimidin-5-ylphenyl)-7,8-dihydroquinazolin-5(6H)-one], the IC50 is less than 1 µM. Take `Cc1cccc(-c2ccccc2C2CC(=O)c3c(C)nc(N)nc3C2)n1` (centres unmarked) [Compound 119, 2-amino-4-methyl-7-[2-(6-methylpyridin-2-yl)phenyl]-7,8-dihydroquinazolin-5(6H)-one]: the IC50 was greater than 10 µM.

For the compound `Cc1nc(N)nc2c1C(=O)CC(c1ccccc1-c1cccc3cc[nH]c13)C2` (centres unmarked) [Compound 129, 2-amino-7-[2-(1H-indol-7-yl)phenyl]-4-methyl-7,8-dihydroquinazolin-5(6H)-one], the IC50 was less than 1 µM. On to `Cc1nc(N)nc2c1C(=O)CC(c1ccccc1-c1ccccc1C(F)(F)F)C2` (centres unmarked) [Compound 109, 2-amino-4-methyl-7-[2′-(trifluoromethyl)-1,1′-biphenyl-2-yl]-7,8-dihydroquinazolin-5(6H)-one], for which the IC50 is less than 1 µM. As to `Cc1nc(N)nc2c1C(=O)CC(c1ccccc1-c1c(F)cccc1F)C2` (centres unmarked) [Compound 85, 2-amino-7-(2′,6′-difluoro-1,1′-biphenyl-2-yl)-4-methyl-7,8-dihydroquinazolin-5(6H)-one], the 50% inhibitory concentration (IC50) was less than 1 µM.

In the case of `Cc1nc(N)nc2c1C(=O)CC(c1c(OCCN)cccc1-c1cccnc1F)C2` (centres unmarked) [Compound 153, 2-amino-7-[2-(2-amino-ethoxy)-6-(2-fluoro-pyridin-3-yl)-phenyl]-4-methyl-7,8-dihydro-6H-quinazolin-5-one], the IC50 was less than 1 µM.

With `Cc1nc(N)nc2c1C(=O)CC(c1cccc(-c3cccnc3)c1)C2` (centres unmarked) [Compound 29, 2-amino-4-methyl-7-(3-pyridin-3-ylphenyl)-7,8-dihydroquinazolin-5(6H)-one], the IC50 was greater than 10 µM. As for `Cc1nc(N)nc2c1C(=O)CC(c1cc(F)ccc1-c1cccnc1F)C2` (centres unmarked) [Compound 88, 2-amino-7-[5-fluoro-2-(2-fluoropyridin-3-yl)phenyl]-4-methyl-7,8-dihydroquinazolin-5(6H)-one], the IC50 was less than 1 µM.

Staying with this assay, now noted: Table II; read-out: Hsp90 IC50 Range.
As to `Cc1nc(N)nc2c1C(=O)C[C@@H](c1ccc(F)cc1-c1cnc3ncn(C)c3n1)C2` [Compound 331, (S)-2-amino-7-[4-fluoro-2-(3-methyl-3H-imidazo[4,5-b]pyrazin-5-yl)-phenyl]-4-methyl-7,8-dihydro-6H-quinazolin-5-one], the IC50 was greater than 10 µM. As for `COc1nccc(-c2cc(F)ccc2C2CC(=O)c3c(C)nc(N)nc3C2)n1` (centres unmarked) [Compound 258, 2-amino-7-[4-fluoro-2-(2-methoxy-pyrimidin-4-yl)-phenyl]-4-methyl-7,8-dihydro-6H-quinazolin-5-one], the IC50 was greater than 10 µM. With `CCc1nc(N)nc2c1C(=O)CC(c1ccc(F)cc1-c1cccc(OC)n1)C2` (centres unmarked) [Compound 316, 2-amino-4-ethyl-7-[4-fluoro-2-(6-methoxy-pyridin-2-yl)-phenyl]-7,8-dihydro-6H-quinazolin-5-one], the 50% inhibitory concentration (IC50) is less than 1 µM.

`COc1ccccc1-n1ccnc1C1CC(=O)c2c(C)nc(N)nc2C1` (centres unmarked) [Compound 194, 2-amino-7-[1-(2-methoxy-phenyl)-1H-imidazol-2-yl]-4-methyl-7,8-dihydro-6H-quinazolin-5-one]: the IC50 is less than 1 µM. The same measure, in the same setting: with `COc1nc(-n2ccnc2[C@H]2CC(=O)c3c(C)nc(N)nc3C2)ncc1C` [Compound 207, (R)-2-amino-7-[1-(4-methoxy-5-methyl-pyrimidin-2-yl)-1H-imidazol-2-yl]-4-methyl-7,8-dihydro-6H-quinazolin-5-one] the figure was greater than 10 µM; with `COc1cccc(-c2ccc(F)cc2C2CC(=O)c3c(C)nc(N)nc3C2)n1` (centres unmarked) [Compound 283, 2-amino-7-[5-fluoro-2-(6-methoxy-pyridin-2-yl)-phenyl]-4-methyl-7,8-dihydro-6H-quinazolin-5-one], less than 1 µM. For the compound `CCc1c[nH]nc1-n1ccnc1C1CC(=O)c2c(C)nc(N)nc2C1` (centres unmarked) [Compound 200, 2-amino-7-[1-(4-ethyl-1H-pyrazol-3-yl)-1H-imidazol-2-yl]-4-methyl-7,8-dihydro-6H-quinazolin-5-one], the IC50 was less than 1 µM. As to `CC(=O)Nc1cccc(Cc2nc(N)nc3c2C(=O)CC(c2ccccc2)C3)c1` (centres unmarked) [Compound 310, N-[3-(2-amino-5-oxo-7-phenyl-5,6,7,8-tetrahydro-quinazolin-4-ylmethyl)-phenyl]-acetamide], the IC50 was greater than 10 µM. `Nc1cccc(Cc2nc(N)nc3c2C(=O)CC(c2ccccc2)C3)c1` (centres unmarked) [Compound 309, 2-amino-4-(3-amino-benzyl)-7-phenyl-7,8-dihydro-6H-quinazolin-5-one]: the IC50 was greater than 10 µM. `COc1ncccc1-n1ccnc1C1CC(=O)c2c(C)nc(N)nc2C1` (centres unmarked) [Compound 202, 2-amino-7-[1-(2-methoxy-pyridin-3-yl)-1H-imidazol-2-yl]-4-methyl-7,8-dihydro-6H-quinazolin-5-one]: the IC50 is less than 1 µM. Consider `COc1ccc(-c2cccc(OC)n2)c(C2CC(=O)c3c(C)nc(N)nc3C2)c1` (centres unmarked) [Compound 252, 2-amino-7-[5-methoxy-2-(6-methoxy-pyridin-2-yl)-phenyl]-4-methyl-7,8-dihydro-6H-quinazolin-5-one], for which the IC50 is less than 1 µM.

As for `COc1ccc(F)c(-c2cc(F)ccc2[C@@H]2CC(=O)c3c(C)nc(N)nc3C2)n1` [Compound 313, (S)-2-amino-7-[4-fluoro-2-(3-fluoro-6-methoxy-pyridin-2-yl)-phenyl]-4-methyl-7,8-dihydro-6H-quinazolin-5-one], the concentration for half-maximal inhibition (IC50) was less than 1 µM. Still for that read-out and setting: with `Nc1ncc2c(n1)CC(c1ccccc1-c1cccc(F)n1)CC2=O` (centres unmarked) [Compound 245, 2-amino-7-[2-(6-fluoro-pyridin-2-yl)-phenyl]-7,8-dihydro-6H-quinazolin-5-one] the figure was less than 1 µM. `COc1cncc(-c2scnc2C2CC(=O)c3c(C)nc(N)nc3C2)n1` (centres unmarked) [Compound 303, 2-amino-7-[5-(6-methoxy-pyrazin-2-yl)-thiazol-4-yl]-4-methyl-7,8-dihydro-6H-quinazolin-5-one]: the 50% inhibitory concentration (IC50) was less than 1 µM. Take `Cc1nc(N)nc2c1C(=O)CC(c1c(F)cccc1Br)C2` (centres unmarked) [Compound 236, 2-amino-7-(2-bromo-6-fluoro-phenyl)-4-methyl-7,8-dihydro-6H-quinazolin-5-one]: the IC50 fell in the range of 1 to 10 µM.
